In the NIST ThermoML archive (doi:10.1021/je100734t):

Assay: xn = mol fraction of the nth substance listed
Details: 101 kPa, Liquid; for speed of sound: Pulse-echo method

CCCCCCCCCO [nonan-1-ol] + Cc1ccccc1C
Details	mass density, 293.15 K [kg/m3]	mass density, 303.15 K [kg/m3]	mass density, 313.15 K [kg/m3]	speed of sound, 293.15 K [m/s]	speed of sound, 303.15 K [m/s]	speed of sound, 313.15 K [m/s]
x2 = 0	827.7	820.82	813.88	1381	1347	1314
x2 = 0.0653	830.13	823.15	816.1	1380	1345	1312
x2 = 0.136	832.82	825.73	818.58	1378	1343	1309
x2 = 0.1773	834.44	827.29	820.07	1377	1341	1307
x2 = 0.2281	836.48	829.25	821.95	1375	1339	1304
x2 = 0.2834	838.77	831.45	824.06	1373	1336	1301
x2 = 0.3463	841.46	834.04	826.55	1370	1334	1298
x2 = 0.4203	844.78	837.24	829.63	1368	1330	1295
x2 = 0.4761	847.41	839.78	832.07	1366	1328	1292
x2 = 0.5478	850.96	843.21	835.38	1364	1326	1289
x2 = 0.6327	855.43	847.54	839.57	1362	1323	1286
x2 = 0.7121	859.93	851.92	843.83	1361	1322	1285
x2 = 0.7974	865.14	856.99	848.77	1361	1322	1284
x2 = 0.8695	869.88	861.63	853.31	1363	1322	1284
x2 = 0.9287	874.08	865.73	857.34	1365	1324	1285

CCCCCCCCCCO [decan-1-ol] + Cc1ccccc1C
Details	mass density, 293.15 K [kg/m3]	mass density, 303.15 K [kg/m3]	mass density, 313.15 K [kg/m3]	speed of sound, 293.15 K [m/s]	speed of sound, 303.15 K [m/s]	speed of sound, 313.15 K [m/s]
x2 = 0	829.98	823.1	816.27	1396	1362	1329
x2 = 0.0766	832.48	825.52	818.51	1394	1359	1325
x2 = 0.1331	834.38	827.33	820.23	1391	1356	1322
x2 = 0.1823	836.1	828.96	821.79	1389	1354	1319
x2 = 0.2509	838.57	831.31	824.05	1386	1350	1315
x2 = 0.3173	841.06	833.71	826.36	1383	1347	1311
x2 = 0.3896	843.95	836.48	829.02	1379	1343	1307
x2 = 0.4556	846.73	839.16	831.61	1376	1339	1303
x2 = 0.5261	849.91	842.23	834.57	1372	1335	1298
x2 = 0.6054	853.77	845.95	838.18	1369	1332	1294
x2 = 0.6597	856.61	848.71	840.85	1367	1329	1292
x2 = 0.7364	860.94	852.91	844.92	1365	1327	1289
x2 = 0.8029	865.03	856.89	848.8	1364	1325	1287
x2 = 0.873	869.74	861.49	853.27	1364	1325	1287
x2 = 0.9447	875.04	866.72	858.33	1366	1326	1287
